# Source: patent US20250034091A1, “Small molecule inhibitors of lanosterol synthase” (Board of Regents, The University of Texas System, priority 2022, published 2025)
# Tests used:
# Lss = assay: quantification of canonical and shunt pathway sterol intermediates in Mut6 cells; format: cell-based, mouse
# Text: Inhibitors of LSS block the canonical cholesterol biosynthetic pathway (referred to as the Bloch and Kandutsch-Russell pathways) and concomitantly stimulate the production of 24(S),25-epoxycholesterol (EPC) through a “shunt” pathway (Mark et al., 1996; Morand et al., 1997). For sterol synthesis, squalene, a symmetric polyene hydrocarbon intermediate in the cholesterol biosynthetic pathway, is oxidized by squalene epoxidase (SQLE) in the presence of NADPH and oxygen to generate (S)-2,3-oxidosqualene (OS), which in turn is converted by LSS into lanosterol. LSS inhibition shunts OS back to SQLE, which catalyzes a second oxidation event yielding the C2-symmetric (S,S)-2,3:22,23-dioxidosqualene (DOS). DOS is a preferred substrate for LSS and, even in the presence of an LSS inhibitor, DOS is converted by LSS into 24(S),25-epoxylanosterol (EPL) (Boutaud et al., 1992). EPL is further converted into EPC by the same enzymes that convert lanosterol into cholesterol (Nelson et al., 1981a; Nelson et al., 1981b). The overall consequence of LSS inhibition is reduced levels of canonical pathway intermediates and increased levels of shunt pathway intermediates. […] We considered that the decrease in EPC at higher concentrations might be the result of complete inhibition of LSS; however, the levels of DOS and EPL continued to increase at doses where EPC was decreasing. […] Pertinent to this hypothesis, in astrocytes, EPC stimulates the expression of sterol transporters including ABCA1 and is itself readily effluxed (Wong et al., 2007). We hypothesize that a threshold level of EPC, reached at higher concentrations of 1, activates transporter expression, leading to EPC efflux and the observed decrease in EPC levels. Taken together, we conclude that inhibition of Lss by MM0299 (1) leads to a dose-dependent decrease in canonical intermediates and an increase in shunt pathway intermediates.
# To better gauge the role of EPC in the anti-cancer activity of 1, we sought to determine whether the levels of EPC achieved in cells treated with 1 are sufficient for toxicity.
# Ebp, Dhcr7, and Dhcr24 = assay: cellular levels of sterols that mark inhibition of Ebp, Dhcr7, Dhcr24; format: cell-based; settings: for cellular 8,9-dehydrocholesterol (8,9-DHC) levels: marker of EBP inhibition
# Text: Inhibition of these sterol biosynthetic enzymes might provide an explanation for our observation that Ro-48-8071 has a blunted increase in EPC following LSS inhibition. […] Consistent with the proteomics data, Ro 48-8071 and TASIN-30, but not 1, displaced TASIN-2 (band migrating at approximately 20 kDa).
# Consistent with inhibition, the cellular levels of 7-dehydrodesmosterol, a Dhcr7 substrate, accumulated following treatment with Ro 48-8071 but not 1.
# Mut6 cells = assay: rescue of toxicity by co-treatment with SQLE inhibitor NB-598 in Mut6 cells; format: cell-based, murine; settings: co-treatment with NB-598
# Text: To assess whether EPC was necessary for MM0299 activity, we considered pharmacologic tools that could selectively block the shunt pathway. In the context of LSS inhibition, the production of DOS requires two cycles of oxidation by squalene epoxidase (SQLE), whereas OS only requires one. Therefore, we reasoned that co-administration of an SQLE inhibitor might have a greater effect on DOS levels and impede flux through the shunt pathway. […] Taken together, we concluded that NB-598 is a pharmacologic tool to selectively block the shunt pathway and assess the requirement for EPC for MM0299 activity. […] These observations are consistent with the hypothesis that inhibition of LSS and the consequent increase in EPC are responsible for toxicity at low nanomolar range. We noted that 1 remained toxic to Mut6 cells at higher concentrations despite the addition of NB-598. Toxicity at these concentrations, which are not likely to be pharmacologically achievable, is unlikely to be a consequence of EPC production, and more likely to be the result of sterol depletion through direct inhibition of cholesterol biosynthesis.
# As a consequence, even though Ro-48-8071 inhibits LSS, its anti-proliferative effects are more likely to be multifactorial. To evaluate the contribution of EPC for Ro 48-8071-induced toxicity, we co-incubated Ro 48-8071 with increasing concentrations of NB-598.
# [1] = system: enzymes downstream of LSS; assay: d6-EPC production from isotopically labeled EPL (d6-EPL) in cells; format: cell-based
# Text: This latter observation raised the hypothesis that Ro 48-8071 inhibited one or more enzymes downstream of LSS thereby blunting EPC synthesis. To evaluate whether Ro 48-8071 inhibits the synthesis of EPC downstream of EPL, we cultured cells with isotopically labeled EPL (d6-EPL) and measured d6-EPC production following compound treatment. Ro 48-8071 inhibited the production of d6-EPC while 1 had no effect on d6-EPC production. […] For small molecules that inhibit enzymes downstream of LSS, our prediction is that lanosterol would not be efficiently converted to cholesterol and therefore would not rescue toxicity as effectively as cholesterol. […] By comparison, exogenous lanosterol and cholesterol provided a complete and equivalent degree of rescue in cells treated with 1.
# Dhcr7 = assay: displacement of Dhcr7-specific probe; format: binding, mouse
Compound,peak levels of EPC relative to those after 1 treatment (Lss) [%],"cellular levels of 7-dehydrodesmosterol (Ebp, Dhcr7, and Dhcr24; Dhcr7 substrate)","accumulation of desmosterol (Ebp, Dhcr7, and Dhcr24; marker of Dhcr24 inhibition, high doses)","cellular 8,9-dehydrocholesterol (8,9-DHC) levels (Ebp, Dhcr7, and Dhcr24)",increase in the IC50 with NB-598 (Mut6 cells) [fold],effect on d6-EPC production from d6-EPL [1],displacement of Dhcr7-probe (crosslinked Dhcr7 band) (Dhcr7),increase of EPC at peak (Lss; 0.1 μM compound 1) [fold],peak level of EPC (Lss; 0.1 μM compound 1) [ng/mg protein],EPC level after lethal dose (Lss; 1 at 0.1 μM) [ng EPC/mg protein],"IC50 (Lss; Mus musculus, read-out: IC50 of lanosterol decrease) [nM]",dose-dependent decrease in the product lanosterol (Lss; maximum),dose-dependent increase in the primary LSS substrate OS (Lss; maximum),increase in shunt pathway intermediate DOS (Lss; maximum),increase in shunt pathway intermediate EPL (Lss; maximum) [fold]
"C=CCN(C)CCCCCCOc1ccc(C(=O)c2ccc(Br)cc2)c(F)c1 [Ro 48-8071, reference compound]",62,accumulated,accumulation,accumulation,3.2,inhibited,displaced,,,,,,,,
"COc1ccc(C(=O)COc2ccc(N3C(=O)[C@@H]4[C@@H]5C=C[C@@H]([C@H]6C[C@@H]56)[C@@H]4C3=O)cc2)cc1 [compound 1, (3aR,4R,4aR,5aS,6S,6aS)-2-(4-(2-(4-Methoxyphenyl)-2-oxoethoxy)phenyl)-4,4a,5,5a,6,6a-hexahydro-4,6-ethenocyclopropa[f]isoindole-1,3(2H,3aH)-dione]",,,,no effect,11.8,no effect,did not displace,13.9,390,342,45.5,up to 24.5 fold,up to 6.48 fold,up to 17.9 fold,≤ 25.6
